# Measurements: patent publication US11351178B2, “Selective HDAC6 inhibitors” (ITALFARMACO S.P.A., priority 2017, dated 2022)
# Key:
# [1] = molecular target: T1, recombinant human HDAC6 (Homo sapiens, UniProt Q9UBN7); experiment: Enzymatic screening on recombinant human HDAC6; format: biochemical; details: Table 2; read-out: HDAC6 IC50
# T1 sequence (Q9UBN7 1-1215): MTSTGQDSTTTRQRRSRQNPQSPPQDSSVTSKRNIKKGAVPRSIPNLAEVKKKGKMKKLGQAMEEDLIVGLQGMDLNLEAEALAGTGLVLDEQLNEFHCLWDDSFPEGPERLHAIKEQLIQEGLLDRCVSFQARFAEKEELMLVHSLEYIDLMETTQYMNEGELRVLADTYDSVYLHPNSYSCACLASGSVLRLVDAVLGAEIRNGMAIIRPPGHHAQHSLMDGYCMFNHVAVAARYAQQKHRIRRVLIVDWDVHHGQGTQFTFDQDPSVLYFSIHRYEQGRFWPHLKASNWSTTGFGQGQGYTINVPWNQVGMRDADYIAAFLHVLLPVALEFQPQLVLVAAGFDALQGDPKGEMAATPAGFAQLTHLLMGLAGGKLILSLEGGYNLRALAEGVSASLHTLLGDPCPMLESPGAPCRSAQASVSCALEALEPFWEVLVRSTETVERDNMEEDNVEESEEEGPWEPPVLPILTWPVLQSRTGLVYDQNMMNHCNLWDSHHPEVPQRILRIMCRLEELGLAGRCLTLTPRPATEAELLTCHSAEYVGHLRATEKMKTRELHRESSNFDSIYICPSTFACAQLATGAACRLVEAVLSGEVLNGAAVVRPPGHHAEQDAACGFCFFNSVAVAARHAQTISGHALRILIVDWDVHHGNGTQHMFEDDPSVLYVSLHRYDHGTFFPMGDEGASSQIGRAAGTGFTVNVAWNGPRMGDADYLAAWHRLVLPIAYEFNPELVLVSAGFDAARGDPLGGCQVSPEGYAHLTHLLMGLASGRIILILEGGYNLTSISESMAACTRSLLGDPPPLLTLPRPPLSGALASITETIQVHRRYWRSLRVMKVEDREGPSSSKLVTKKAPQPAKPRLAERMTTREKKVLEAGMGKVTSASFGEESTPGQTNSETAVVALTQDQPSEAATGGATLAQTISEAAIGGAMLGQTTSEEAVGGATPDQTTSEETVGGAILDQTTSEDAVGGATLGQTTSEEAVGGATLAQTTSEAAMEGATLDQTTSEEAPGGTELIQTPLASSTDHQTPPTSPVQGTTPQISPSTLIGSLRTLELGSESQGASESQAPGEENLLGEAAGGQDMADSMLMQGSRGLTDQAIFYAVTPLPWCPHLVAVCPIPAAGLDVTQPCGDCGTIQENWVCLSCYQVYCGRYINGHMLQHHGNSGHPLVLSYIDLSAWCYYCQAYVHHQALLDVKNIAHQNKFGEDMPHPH
# How it was run: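 Substrates were Fluor de Lys, Fluor de Lys-Green or trifluoroacetyl-L-lysine, in 25 mM Tris-HCl pH 8, 130 mM NaCl, 0.05% Tween-20, 10% glycerol. They were added after isoform-dependent preincubation of recombinant human enzyme with compound at 30 °C, and the reaction also ran at 30 °C.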
# [2] = test system: B 697 promyelocytic cell line; experiment: Cytotoxicity on 697 cell line (CellTiter 96); format: cell-based; details: 72 hours incubation, read-out: 697 TOXICITY
# Protocol: Cytotoxic activity was evaluated on B 697 […] cell line for all synthesized compounds and on peripheral blood mononuclear cells (PBMCs) for compounds showing a good potency/selectivity profile.
# Cells were seeded in plate (2×10^4 cells per well for 697, 5×10^5 cells per well for PBMCs). The test compounds (concentrations from 1.5 nM to 10000 nM for PBMCs and from 1 nM to 10000 nM for 697) were added after 24 hours and incubated 72 hours. The molecules cytotoxic activity was evaluated using CellTiter 96© Aqueous One Solution Cell Proliferation Assay (Promega), which measures the mitochondria function, following the manufacturer's instructions.
# [3] = Stability to Phase I metabolism in rat S9 liver fraction; format: in vitro ADME; details: after 90 min, 37° C.
# How it was run: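 Phase I stability in human and rat hepatic S9 at 37 °C, sampled up to 90 min. Samples were stopped with acidified acetonitrile on ice, then quantified by HPLC-UV or LC-MS/MS.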
# [4] = Stability in rat plasma; format: in vitro ADME; details: after 4 hours, 37° C.
# How it was run: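 Compounds incubated at 37° C in rat or human plasma at 50 μM (UV/HPLC) or 1 or 2 μM (LC-MS/MS) for 0–4 h. Reaction stopped with acidified acetonitrile on ice; percent remaining versus initial amount and plasma half-life calculated.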
Compound,IC50 [1] [µM],IC50 [2] [µM],residual percentage in rat S9 fraction [3] [%],residual percentage in rat plasma [4] [%]
"COc1ccc(Cc2nnc(-c3cccs3)n2Cc2ccc(C(=O)NO)cc2)cc1OC [comp. 185, 4-[[3-[(3,4-dimethoxyphenyl)methyl]-5-(2-thienyl)-1,2,4-triazol-4-yl]methyl]benzenecarbohydroxamic acid]",1,10.4,,
"O=C(O)c1cccc(-c2nnn(Cc3ccc(C(=O)NO)cc3)n2)c1 [comp. 163, 3-[2-[[4-(hydroxycarbamoyl)phenyl]methyl]tetrazol-5-yl]benzoic acid]",0.012,49,,
"O=C(O)c1ccc(Cc2nnnn2Cc2ccc(C(=O)NO)cc2)cc1 [comp. 159, 4-[[1-[[4-(hydroxycarbamoyl)phenyl]methyl]tetrazol-5-yl]methyl]benzoic acid]",1.37,16.9,,
"Nc1ccc(-c2nnnn2Cc2ccc(C(=O)NO)cc2)cc1 [comp. 170, 4-[[5-(4-aminophenyl)tetrazol-1-yl]methyl]benzenecarbohydroxamic acid]",0.008,61.4,,
"NCc1ccc(-c2nnnn2Cc2ccc(C(=O)NO)cc2)cc1 [comp. 174, 4-[[5-[4-(aminomethyl)phenyl]tetrazol-1-yl]methyl]benzenecarbohydroxamic acid]",0.129,50.3,,
"COC(=O)c1ccc(Cc2nnnn2Cc2c(F)cc(C(=O)NO)cc2F)cc1 [comp. 155, methyl 4-[[1-[[2,6-difluoro-4-(hydroxycarbamoyl)phenyl]methyl]tetrazol-5-yl]methyl]benzoate]",0.172,22.7,,
"Cn1c(Sc2ccc(C(=O)NO)cc2)nnc1C1CCN(C(=O)OC(C)(C)C)CC1 [comp. 82, tert-butyl 4-[5-[4-(hydroxycarbamoyl)phenyl]sulfanyl-4-methyl-1,2,4-triazol-3-yl]piperidine-1-carboxylate]",0.027,6.5,,
"O=C(O)c1ccc(-c2nnn(Cc3ccc(C(=O)NO)cc3)n2)nc1 [comp. 162, 6-[2-[[4-(hydroxycarbamoyl)phenyl]methyl]tetrazol-5-yl]pyridine-3-carboxylic acid]",0.138,16.9,,
"O=C(O)c1ccc(Cc2nnn(Cc3c(F)cc(C(=O)NO)cc3F)n2)cc1 [comp. 160, 4-[[2-[[2,6-difluoro-4-(hydroxycarbamoyl)phenyl]methyl]tetrazol-5-yl]methyl]benzoic acid]",0.115,16.9,,
"O=C(O)c1ccc(Cc2nnnn2Cc2c(F)cc(C(=O)NO)cc2F)cc1 [comp. 161, 4-[[1-[[2,6-difluoro-4-(hydroxycarbamoyl)phenyl]methyl]tetrazol-5-yl]methyl]benzoic acid]",0.327,16.9,,
"O=C(O)c1ccc(Cc2nnn(Cc3ccc(C(=O)NO)cc3)n2)cc1 [comp. 158, 4-[[2-[[4-(hydroxycarbamoyl)phenyl]methyl]tetrazol-5-yl]methyl]benzoic acid]",0.231,16.9,,
"O=C(NO)c1ccc(Cn2c(Cc3c[nH]c4ccccc34)nnc2-c2cccs2)cc1 [compound 183, 4-((3-((1H-indol-3-yl)methyl)-5-(thiophen-2-yl)-4H-1,2,4-triazol-4-yl)methyl)-N-hydroxybenzamide]",0.212,50.3,,
"COc1ccc(-c2nnn(Cc3ccc(C(=O)NO)cc3)n2)cc1OCc1ccccc1 [comp. 70, 4-[[5-(3-benzyloxy-4-methoxy-phenyl)tetrazol-2-yl]methyl]benzenecarbohydroxamic acid]",0.009,,18,79
"O=C(NO)c1cc(F)c(Cn2nnc(-c3ccc4ccccc4n3)n2)c(F)c1 [comp. 95, 3,5-difluoro-4-[[5-(2-quinolyl)tetrazol-2-yl]methyl]benzenecarbohydroxamic acid]",0.01,,41,75
